Experimental data from patent US7763669B2, “Low-viscosity, radiation-curable formulation for producing adaptive earpieces” (Dreve-Otoplastik GmbH, priority 2004, dated 2010).

Key:
[1] = Flexural strength, modulus of elasticity and elongation per EN ISO 178 (Zwick 1 test unit) on post-cured test pieces; assay type: physicochemical
Description: The flexural strength, modulus of elasticity, and elongation were determined in accordance with EN ISO 178 (1996), using a Zwick 1 test unit from Zwick. The test pieces were post-cured for 2×7 min, using the PCU stroboscope irradiation unit from Dreve.
(§1) Table 2 lists the parameters for the above-described resins that are relevant for the stereolithographic process. All viscosity measurements were performed at 23° C. using a CVO rheometer from Bohlin Instruments. The flexural strength, modulus of elasticity, and elongation were determined in accordance with EN ISO 178 (1996), using a Zwick 1 test unit from Zwick. For determining the Ec and Dp values using the above-described windowpane method, in each case the average values were determined for 10 windowpane test pieces. The test pieces were produced using a Viper si2 SLA system (3D Systems) equipped with a Nd:YVO4 solid-state laser. The green compacts were post-cured for 2×7 min, using the Fototec PCU stroboscope irradiation unit from Dreve.

[2] = Windowpane method for critical energy Ec and laser penetration depth Dp; assay type: physicochemical; conditions: small quantities added to resin formulation; for Influence of inhibitor addition on penetration depth of the laser beam Dp: FIGS. 3 and 5; for Influence of inhibitor addition on critical energy Ec: FIGS. 4 and 6
Description: The influence of the concentration of phenothiazine (PTZ) and 2,2-diphenyl-1-picrylhydrazyl radical (DPPH) in the formulations of Examples 1 and 2 on the penetration depth of the laser beam and the critical energy is illustrated in FIGS. 3 through 6. The laser penetration depth and the critical energy were determined using the windowpane method described by P. F. Jacobs and D. T. Reid in Rapid Prototyping & Manufacturing, Society of Manufacturing Engineers, Dearborn, Mich., 1992, 1st Ed., pp. 263-280. […] This influence of the inhibitors phenothiazine (PTZ) and 2,2-diphenyl-1-picrylhydrazyl radical (DPPH) on the is relevant parameter Ec (critical energy, mJ·cm^−2) and Dp (laser penetration depth, mils) for the stereolithographic resin differs from the influence of the inhibitors, such as p-methoxyphenol, added to the stereolithographic resins corresponding to the prior art (L. E. Levy, J. Polym. Sci., Part A, Polym. Chem. 30 (1992), 569ff). For example, in comparison to p-methoxyphenol the parameters Ec and Dp may be linearly adjusted in a wider range by small concentrations of the inhibitors. This is of great advantage, particularly for the production of such resins and adjustment of the above-described parameters. From a technical production standpoint this may be used to adjust the laser penetration depth that has a direct influence on the accuracy of the production process. For example, performing curing over a value of laser penetration depth that exceeds the desired layer thickness for the process reduces the resolution of the process. High values of the laser penetration depth play an important role in particular for transparent stereolithographic resins that preferably are used for producing otoplastic parts. In the case of stereolithographic resins in the medical field, however, in particular stereolithographic resins for the production of the above-described adaptive earpieces, the accuracy of the production, and thus, the fit, of the molded body is of paramount importance.
as §1

[3] = resin formulation from Example 2, inhibitor concentration 0.01 % by wt.
[4] = resin formulation from Example 2, inhibitor concentration 0.025 % by wt.
[5] = resin formulation from Example 2, inhibitor concentration 0.05 % by wt.
[6] = resin formulation from Example 2, inhibitor concentration 0.10 % by wt.
[7] = resin formulation from Example 2, inhibitor concentration 0.15 % by wt.

Compound | Elongation to break [1, 3] | Flexural strength [1, 3] | Modulus of elasticity [1, 3] | Elongation to break [1, 4] | Flexural strength [1, 4] | Modulus of elasticity [1, 4] | Elongation to break [1, 5] | Flexural strength [1, 5] | Modulus of elasticity [1, 5] | Influence of inhibitor addition on penetration depth of the laser beam Dp [2] | Influence of inhibitor addition on critical energy Ec [2] | Elongation to break [1, 6] | Flexural strength [1, 6] | Modulus of elasticity [1, 6] | Elongation to break [1, 7] | Flexural strength [1, 7] | Modulus of elasticity [1, 7]
2,2-diphenyl-1-picrylhydrazyl radical [DPPH] | 13% | 61 N · mm^−2 | 1452 N · mm^−2 | 11% | 69 N · mm^−2 | 1324 N · mm^−2 | 10% | 66 N · mm^−2 | 1277 N · mm^−2 | linear decrease | sharp, essentially linear increase | – | – | – | – | – | –
c1ccc2c(c1)Nc1ccccc1S2 [Phenothiazine, phenothiazine] | – | – | – | 15% | 95 N · mm^−2 | 1867 N · mm^−2 | 13% | 95 N · mm^−2 | 1989 N · mm^−2 | linear decrease | sharp, essentially linear increase | 12% | 101 N · mm^−2 | 2007 N · mm^−2 | 10% | 89 N · mm^−2 | 1832 N · mm^−2
